Calls of active or inactive are those of the source. The rule behind the calls is not given here.
Key:
Cytochrome P450 2C19 = Cytochrome P450 2C19 (Homo sapiens, UniProt P33261); experiment: Inhibition of recombinant human CYP2C19 at 1 uM by fluorescence assay; type: ADME; settings: recombinant enzyme
Cytochrome P450 2C9 = Cytochrome P450 2C9 (Homo sapiens, UniProt P11712); experiment: Inhibition of recombinant human CYP2C9 at 1 uM by fluorescence assay; type: ADME; settings: recombinant enzyme
HepG2 [1] = experiment: Cytotoxicity against human HepG2 cells at 1 to 100 uM incubated for 20 hrs under serum free condition by neutral red uptake assay; type: cell-based; settings: hepg2, 20 h
Cytochrome P450 1A2 = molecular target: T1, Cytochrome P450 1A2 (Homo sapiens, UniProt P05177); experiment: Inhibition of recombinant human CYP1A2 at 1 uM by fluorescence assay; type: ADME; settings: recombinant enzyme
T1 sequence (P05177 whole entry): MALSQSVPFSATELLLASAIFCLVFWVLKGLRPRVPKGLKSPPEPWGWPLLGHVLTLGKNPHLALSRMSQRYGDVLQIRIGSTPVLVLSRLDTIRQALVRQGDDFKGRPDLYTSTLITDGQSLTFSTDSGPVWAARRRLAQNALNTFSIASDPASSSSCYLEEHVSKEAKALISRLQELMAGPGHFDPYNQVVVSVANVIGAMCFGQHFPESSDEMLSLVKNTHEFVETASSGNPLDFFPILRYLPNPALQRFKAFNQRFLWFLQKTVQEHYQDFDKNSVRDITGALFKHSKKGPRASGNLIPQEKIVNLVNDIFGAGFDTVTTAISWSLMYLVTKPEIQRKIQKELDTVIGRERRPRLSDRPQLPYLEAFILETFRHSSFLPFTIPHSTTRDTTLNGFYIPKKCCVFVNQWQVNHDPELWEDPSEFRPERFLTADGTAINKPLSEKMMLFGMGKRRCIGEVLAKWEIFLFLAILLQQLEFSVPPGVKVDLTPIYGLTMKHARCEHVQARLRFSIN

[2] = molecular target: Sodium-dependent serotonin transporter (Homo sapiens) (UniProt P31645); experiment: Binding affinity to serotonin transporter (unknown origin) at 1 uM
Sodium-dependent serotonin transporter (Homo sapiens), sequence (P31645 whole entry, looked up): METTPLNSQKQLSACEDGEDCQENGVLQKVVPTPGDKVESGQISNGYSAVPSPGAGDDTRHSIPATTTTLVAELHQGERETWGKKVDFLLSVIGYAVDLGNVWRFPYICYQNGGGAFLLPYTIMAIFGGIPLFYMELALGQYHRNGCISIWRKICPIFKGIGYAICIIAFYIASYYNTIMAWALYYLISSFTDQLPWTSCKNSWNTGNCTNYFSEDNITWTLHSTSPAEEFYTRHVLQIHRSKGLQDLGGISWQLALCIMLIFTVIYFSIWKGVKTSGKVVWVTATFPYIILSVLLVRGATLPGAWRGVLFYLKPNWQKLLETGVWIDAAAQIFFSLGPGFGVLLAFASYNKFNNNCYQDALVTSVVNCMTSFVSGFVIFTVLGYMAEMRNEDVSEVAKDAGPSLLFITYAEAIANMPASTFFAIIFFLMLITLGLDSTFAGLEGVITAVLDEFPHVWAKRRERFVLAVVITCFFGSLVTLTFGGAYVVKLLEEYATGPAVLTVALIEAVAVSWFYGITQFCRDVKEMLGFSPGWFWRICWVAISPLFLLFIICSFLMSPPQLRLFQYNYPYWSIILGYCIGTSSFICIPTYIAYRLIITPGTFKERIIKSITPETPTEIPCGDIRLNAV

[3] = molecular target: T2, Alpha-2A adrenergic receptor (Homo sapiens) (UniProt P08913); experiment: Binding affinity to alpha 2a adrenergic receptor (unknown origin) at 1 uM relative to control
T2 sequence (whole entry): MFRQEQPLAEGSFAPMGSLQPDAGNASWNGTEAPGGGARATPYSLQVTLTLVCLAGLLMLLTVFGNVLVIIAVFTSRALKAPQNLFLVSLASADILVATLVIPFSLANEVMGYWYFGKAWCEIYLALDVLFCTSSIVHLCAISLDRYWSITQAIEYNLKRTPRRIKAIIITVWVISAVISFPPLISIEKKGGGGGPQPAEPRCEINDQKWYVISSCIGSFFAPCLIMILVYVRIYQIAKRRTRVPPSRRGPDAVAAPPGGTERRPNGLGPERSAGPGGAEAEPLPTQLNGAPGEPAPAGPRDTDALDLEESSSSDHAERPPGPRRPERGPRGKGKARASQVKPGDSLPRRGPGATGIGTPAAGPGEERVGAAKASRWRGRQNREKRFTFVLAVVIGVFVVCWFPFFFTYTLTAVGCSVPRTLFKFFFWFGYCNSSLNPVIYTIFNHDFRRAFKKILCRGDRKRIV

[4] = molecular target: Delta-type opioid receptor (Rattus norvegicus, UniProt P33533); experiment: Displacement of [3H]DPDPE from delta opioid receptor in rat membranes after 120 mins by scintillation counting analysis; type: cell membranes
Delta-type opioid receptor, sequence (P33533 whole entry): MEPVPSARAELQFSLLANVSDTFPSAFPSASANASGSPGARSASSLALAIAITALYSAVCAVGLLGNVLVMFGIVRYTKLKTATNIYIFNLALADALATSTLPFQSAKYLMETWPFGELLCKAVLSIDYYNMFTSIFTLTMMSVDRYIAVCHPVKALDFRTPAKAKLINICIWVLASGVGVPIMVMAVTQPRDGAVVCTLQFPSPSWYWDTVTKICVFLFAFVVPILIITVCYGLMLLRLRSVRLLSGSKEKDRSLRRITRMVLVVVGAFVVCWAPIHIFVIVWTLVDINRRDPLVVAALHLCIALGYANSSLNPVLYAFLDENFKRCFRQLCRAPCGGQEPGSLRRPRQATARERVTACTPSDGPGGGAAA

Mu-type opioid receptor = Mu-type opioid receptor (Cavia porcellus, UniProt P97266); experiment: Displacement of [3H]DAMGO from mu opioid receptor in guinea pig brain membranes after 120 mins by scintillation counting analysis; type: cell membranes
[5] = molecular target: T3, Sigma intracellular receptor 2 (Rattus norvegicus, UniProt Q5U3Y7); experiment: Displacement of [3H]-di-o-tolylguanidine from sigma2 receptor in rat liver membranes incubated for 120 mins in the presence of sigma1 receptor ligand (+)-pentazocine by scintillation counting method; type: cell membranes
T3 sequence (Q5U3Y7 whole entry): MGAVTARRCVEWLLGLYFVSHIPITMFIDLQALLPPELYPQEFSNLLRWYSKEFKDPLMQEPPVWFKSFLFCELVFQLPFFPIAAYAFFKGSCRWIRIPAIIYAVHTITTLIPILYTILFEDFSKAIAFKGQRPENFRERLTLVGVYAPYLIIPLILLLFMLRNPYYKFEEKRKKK

[6] = molecular target: Sodium-dependent dopamine transporter (Homo sapiens) (UniProt Q01959); experiment: Binding affinity to dopamine transporter (unknown origin) at 1 uM
Sodium-dependent dopamine transporter (Homo sapiens), sequence (Q01959 whole entry): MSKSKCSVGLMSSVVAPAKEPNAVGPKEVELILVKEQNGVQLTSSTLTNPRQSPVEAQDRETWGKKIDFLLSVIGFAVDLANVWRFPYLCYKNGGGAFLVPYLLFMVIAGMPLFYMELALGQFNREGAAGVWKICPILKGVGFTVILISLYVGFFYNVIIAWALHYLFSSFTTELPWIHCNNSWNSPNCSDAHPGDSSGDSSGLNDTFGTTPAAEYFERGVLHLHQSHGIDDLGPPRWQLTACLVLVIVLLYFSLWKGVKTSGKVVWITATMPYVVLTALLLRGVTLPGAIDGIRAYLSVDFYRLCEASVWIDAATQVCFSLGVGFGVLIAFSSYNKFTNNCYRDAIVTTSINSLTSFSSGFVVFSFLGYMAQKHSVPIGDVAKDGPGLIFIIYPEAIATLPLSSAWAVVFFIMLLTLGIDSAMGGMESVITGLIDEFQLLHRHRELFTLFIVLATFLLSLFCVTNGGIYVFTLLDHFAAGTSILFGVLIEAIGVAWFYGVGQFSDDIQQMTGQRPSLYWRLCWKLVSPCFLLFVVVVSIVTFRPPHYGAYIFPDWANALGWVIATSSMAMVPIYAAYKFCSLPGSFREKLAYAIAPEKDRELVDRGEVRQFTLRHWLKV

[7] = molecular target: Kappa-type opioid receptor (Cavia porcellus) (UniProt P41144); experiment: Displacement of [3H]U69,593 from kappa opioid receptor in guinea pig brain membrane at 1 uM after 120 mins by scintillation counting analysis relative to control; type: cell membranes
Kappa-type opioid receptor (Cavia porcellus), sequence (P41144 whole entry): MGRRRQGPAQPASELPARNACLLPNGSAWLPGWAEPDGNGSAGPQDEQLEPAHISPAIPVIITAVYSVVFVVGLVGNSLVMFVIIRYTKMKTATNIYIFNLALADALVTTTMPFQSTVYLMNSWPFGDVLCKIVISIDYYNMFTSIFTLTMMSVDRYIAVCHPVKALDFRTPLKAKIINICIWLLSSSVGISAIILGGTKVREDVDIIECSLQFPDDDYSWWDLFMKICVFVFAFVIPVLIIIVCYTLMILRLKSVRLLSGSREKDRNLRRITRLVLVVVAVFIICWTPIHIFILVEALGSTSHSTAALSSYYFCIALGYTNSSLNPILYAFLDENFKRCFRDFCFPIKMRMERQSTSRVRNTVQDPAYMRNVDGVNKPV

[8] = molecular target: 5-hydroxytryptamine receptor 2B (Homo sapiens) (UniProt P41595); experiment: Binding affinity to 5-HT2BR (unknown origin) at 1 uM relative to control
5-hydroxytryptamine receptor 2B (Homo sapiens), sequence (P41595 whole entry): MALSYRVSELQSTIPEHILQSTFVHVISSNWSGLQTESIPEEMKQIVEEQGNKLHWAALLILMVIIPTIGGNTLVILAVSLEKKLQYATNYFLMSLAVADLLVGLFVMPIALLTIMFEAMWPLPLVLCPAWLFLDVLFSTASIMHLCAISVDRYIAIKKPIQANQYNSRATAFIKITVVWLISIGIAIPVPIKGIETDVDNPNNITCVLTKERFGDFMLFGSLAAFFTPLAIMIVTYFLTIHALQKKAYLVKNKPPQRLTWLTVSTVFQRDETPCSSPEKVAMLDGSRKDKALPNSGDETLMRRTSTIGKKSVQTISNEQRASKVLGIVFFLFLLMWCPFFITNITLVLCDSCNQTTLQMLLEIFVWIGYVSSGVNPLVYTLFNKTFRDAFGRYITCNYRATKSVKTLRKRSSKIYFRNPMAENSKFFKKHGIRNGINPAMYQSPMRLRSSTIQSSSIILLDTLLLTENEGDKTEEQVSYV

[9] = molecular target: Sigma non-opioid intracellular receptor 1 (Homo sapiens, UniProt Q99720); experiment: Displacement of [3H](+)-pentazocine from sigma 1 receptor in human RPMI8226 cell membranes incubated for 2 hrs under shaking by scintillation counting analysis
Sigma non-opioid intracellular receptor 1 (Homo sapiens, UniProt Q99720), sequence (Q99720 whole entry): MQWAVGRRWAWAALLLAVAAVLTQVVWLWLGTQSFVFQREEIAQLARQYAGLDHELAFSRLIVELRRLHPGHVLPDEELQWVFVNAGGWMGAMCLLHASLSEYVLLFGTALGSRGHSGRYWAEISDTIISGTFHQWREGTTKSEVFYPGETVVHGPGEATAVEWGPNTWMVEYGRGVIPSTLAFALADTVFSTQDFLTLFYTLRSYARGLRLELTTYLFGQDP

[10] = Metabolic stability in human liver microsomes assessed as parent compound remaining at 1 uM in the presence of NADPH regenerating system after 60 mins by UPLC/MS analysis; type: ADME, Microsome; settings: read-out: Stability
[11] = molecular target: Sigma intracellular receptor 2 (Homo sapiens, UniProt Q5BJF2); experiment: Displacement of [3H]-di-o-tolylguanidine from sigma2 receptor in human RT4 cell membranes incubated for 120 mins in the presence of sigma1 receptor ligand (+)-pentazocine by scintillation counting method
Sigma intracellular receptor 2 (Homo sapiens, UniProt Q5BJF2), sequence (Q5BJF2 whole entry): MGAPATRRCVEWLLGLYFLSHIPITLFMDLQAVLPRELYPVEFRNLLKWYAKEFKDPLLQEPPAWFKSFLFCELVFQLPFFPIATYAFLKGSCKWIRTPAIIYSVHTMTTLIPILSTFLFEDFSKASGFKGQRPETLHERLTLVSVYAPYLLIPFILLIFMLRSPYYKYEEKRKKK

[12] = molecular target: Sigma non-opioid intracellular receptor 1 (Rattus norvegicus) (UniProt Q9R0C9); experiment: Agonist activity at sigma 1 receptor in rat PC12 cells assessed as effect on KCl-induced intracellular calcium flux by fura-2-AM dye based fluorescence assay; type: cell-based
Sigma non-opioid intracellular receptor 1 (Rattus norvegicus), sequence (Q9R0C9 whole entry): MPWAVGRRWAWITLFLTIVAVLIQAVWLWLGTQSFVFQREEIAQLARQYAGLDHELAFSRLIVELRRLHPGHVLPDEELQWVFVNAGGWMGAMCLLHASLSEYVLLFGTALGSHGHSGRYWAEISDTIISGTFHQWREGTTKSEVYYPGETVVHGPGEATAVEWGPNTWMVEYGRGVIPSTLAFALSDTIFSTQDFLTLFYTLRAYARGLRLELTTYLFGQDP

[13] = molecular target: Sigma non-opioid intracellular receptor 1 (Cavia porcellus, UniProt Q60492); experiment: Displacement of [3H](+)-pentazocine from sigma 1 receptor in guinea pig brain cortex membranes after 120 mins by scintillation counting analysis; type: cell membranes
Sigma non-opioid intracellular receptor 1 (Cavia porcellus, UniProt Q60492), sequence (Q60492 whole entry): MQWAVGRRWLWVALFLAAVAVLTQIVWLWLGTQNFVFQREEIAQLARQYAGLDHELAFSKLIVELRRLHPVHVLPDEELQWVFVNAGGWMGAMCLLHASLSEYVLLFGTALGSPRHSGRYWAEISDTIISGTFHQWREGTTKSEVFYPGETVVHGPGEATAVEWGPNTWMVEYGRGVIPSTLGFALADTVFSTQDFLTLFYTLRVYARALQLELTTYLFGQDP

Cytochrome P450 3A4 = Cytochrome P450 3A4 (Homo sapiens, UniProt P08684); experiment: Inhibition of recombinant human CYP3A4 at 1 uM by fluorescence assay; type: ADME; settings: recombinant enzyme
Cytochrome P450 3A4, sequence (P08684 whole entry): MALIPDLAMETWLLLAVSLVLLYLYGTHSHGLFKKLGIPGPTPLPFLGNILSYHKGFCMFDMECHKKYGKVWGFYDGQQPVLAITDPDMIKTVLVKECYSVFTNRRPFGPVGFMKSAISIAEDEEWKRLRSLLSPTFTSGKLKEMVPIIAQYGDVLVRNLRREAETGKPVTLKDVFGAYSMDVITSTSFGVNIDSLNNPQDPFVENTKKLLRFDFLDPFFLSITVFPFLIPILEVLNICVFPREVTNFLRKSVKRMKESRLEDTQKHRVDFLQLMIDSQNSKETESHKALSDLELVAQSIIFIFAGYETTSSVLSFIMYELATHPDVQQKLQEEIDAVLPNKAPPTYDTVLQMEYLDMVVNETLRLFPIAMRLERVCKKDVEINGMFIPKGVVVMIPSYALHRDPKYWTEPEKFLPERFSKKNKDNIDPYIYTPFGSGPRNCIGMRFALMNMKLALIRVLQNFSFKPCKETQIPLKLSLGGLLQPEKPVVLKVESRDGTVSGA

[14] = molecular target: Sodium-dependent noradrenaline transporter (Homo sapiens) (UniProt P23975); experiment: Binding affinity to noradrenaline transporter (unknown origin) at 1 uM
Sodium-dependent noradrenaline transporter (Homo sapiens), sequence (P23975 whole entry): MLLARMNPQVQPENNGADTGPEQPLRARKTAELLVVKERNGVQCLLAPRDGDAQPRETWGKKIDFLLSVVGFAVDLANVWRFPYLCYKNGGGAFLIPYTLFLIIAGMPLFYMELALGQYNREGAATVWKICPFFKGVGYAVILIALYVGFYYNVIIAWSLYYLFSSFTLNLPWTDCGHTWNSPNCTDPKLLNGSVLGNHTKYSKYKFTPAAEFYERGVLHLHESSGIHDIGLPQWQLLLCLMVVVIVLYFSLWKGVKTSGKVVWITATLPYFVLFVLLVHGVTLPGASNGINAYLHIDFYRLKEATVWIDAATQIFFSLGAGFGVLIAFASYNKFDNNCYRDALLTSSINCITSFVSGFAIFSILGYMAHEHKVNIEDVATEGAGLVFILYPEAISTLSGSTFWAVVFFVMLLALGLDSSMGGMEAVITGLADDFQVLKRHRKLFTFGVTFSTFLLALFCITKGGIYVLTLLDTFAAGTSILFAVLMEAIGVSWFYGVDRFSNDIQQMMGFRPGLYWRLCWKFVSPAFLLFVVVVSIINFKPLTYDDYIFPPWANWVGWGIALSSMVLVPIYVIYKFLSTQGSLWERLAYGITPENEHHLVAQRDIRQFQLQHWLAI

[15] = Selectivity ratio of Ki for displacement of [3H]DTG from sigma2 receptor in rat liver membranes to Ki for displacement of (+)-[3H]pentazocine from sigma 1 receptor in guinea pig brain cortex membranes; type: cell membranes
[16] = molecular target: Sigma non-opioid intracellular receptor 1 (Rattus norvegicus) (UniProt Q9R0C9); experiment: Antagonist activity at sigma 1 receptor in rat PC12 cells assessed as suppression of opipramol-induced inhibition of KCl-stimulated intracellular calcium influx at 10 nM preincubated for 5 mins followed by opipramol addition for 5 mins and subsequent KCl-stimulation by fura-2-AM dye based fluorescence assay; type: cell-based
HepG2 [17] = experiment: Cytotoxicity against human HepG2 cells at 1 to 100 uM incubated for 20 hrs under serum free condition by MTT assay; type: cell-based; settings: hepg2, 20 h
Sus scrofa = species: Sus scrofa; experiment: Displacement of [3H]-(+)-MK-801 from PCP binding site of NMDA receptor in pig brain cortex membranes up to 1 uM after 120 mins by scintillation counting analysis; type: cell membranes

Cytochrome P450 2C19, sequence (P33261 whole entry): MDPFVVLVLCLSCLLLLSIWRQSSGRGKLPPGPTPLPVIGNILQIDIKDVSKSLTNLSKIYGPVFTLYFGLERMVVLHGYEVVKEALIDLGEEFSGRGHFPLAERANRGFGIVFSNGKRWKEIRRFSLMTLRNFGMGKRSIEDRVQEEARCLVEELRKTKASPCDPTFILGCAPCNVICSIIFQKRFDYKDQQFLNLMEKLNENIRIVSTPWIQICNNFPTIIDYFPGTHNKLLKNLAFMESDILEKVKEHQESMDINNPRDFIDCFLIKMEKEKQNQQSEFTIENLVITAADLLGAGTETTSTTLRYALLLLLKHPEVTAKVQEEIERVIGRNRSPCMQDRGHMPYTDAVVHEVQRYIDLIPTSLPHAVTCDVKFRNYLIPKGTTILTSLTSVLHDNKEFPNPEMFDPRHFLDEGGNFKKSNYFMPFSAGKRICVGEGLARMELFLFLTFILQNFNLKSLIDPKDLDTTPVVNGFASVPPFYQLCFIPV

## COC1Cc2ccccc2[C@]2(CC[C@H](N(C)CC3CCCCC3)CC2)O1 (stereo partly drawn)
Cytochrome P450 2C19
  inhibition (INH): Not Active
Cytochrome P450 2C9
  inhibition (INH): Not Active
HepG2 [1]
  Activity: Non-Toxic
Cytochrome P450 1A2
  inhibition (INH): Not Active
[2]
  Activity: inactive
[3]
  Activity: 93%
[4]
  Ki: 364 nM
Mu-type opioid receptor
  Ki: 391 nM
[5]
  Ki: 12 nM
[6]
  Activity: inactive
[7]
  inhibition: 0%
[8]
  Activity: 62%
[9]
  Ki: 7.3 nM
[10]
  remaining at 1 h, 1 µM: > 50%
[11]
  Ki: 13 nM
[12]
  Activity: inactive
[13]
  Ki: 1.9 nM
Cytochrome P450 3A4
  inhibition (INH): Not Active
[14]
  Activity: inactive
[15]
  Ratio Ki: 5 to 10
[16]
  inhibition: Active
HepG2 [17]
  Activity: Non-Toxic
Sus scrofa
  Activity: inactive
